The values that follow come from US20230039836A1, “AROMATIC SULPHONAMIDES DERIVATIVES THAT INHIBITS PDI A3, THEIR SYNTHESIS AND USE” (Uniwersytet Jagiellonski, priority 2020, published 2023).

In brackets after ≈: the same amount, converted by molar mass. Several values for one entry are separate records, joined by “and”; a condition that tells them apart may be missing. Equal values may be shown once. Read-outs that look alike come from different tables or passages of the source.

One assay has as its system MCF-7. In words: Sulforhodamine B antiproliferative assay, 72 h, normal and hypoxia. The class given is cell-based, human. The conditions noted are these: Homo sapiens, MCF7, 72-hour exposition. How it is done:
(§1) Anticancer activity of PDI A1-inhibitors has been also tested in vitro in antiproliferative essay in normoxic and hypoxic conditions as well in estrogen-stimulated cancer cells. In the experiment, cells were seeded on 96-well plates (Sarstedt, Germany) in appropriate culture medium at a density of 10^5 cells/mL 24 h before adding the tested compounds. Cells were treated with each compound in four concentrations in the range 0.1-100 ug/mL. […] After 72 h of compound treatment at 37° C., 5 % CO2 humid atmosphere and in wo different oxygen level conditions: 21% - normal and <1% - hypoxia. In some experiments, the MDA-MB-231 and MCF-7 cells were seeded with or without 200 nM estradiol and after 24 h the tested compounds were added. A previously described sulforhodamine B antiproliferative assay was used with minor modifications (Skehan P et al., 1990). Briefly, cells were fixed with 50 µL/well of 50% (w/v) trichloroacetic acid (Avantor Performance Materials, Gliwice, Poland). After 1 h incubation, plates were washed several times with tap water and 50 µL of 0.4% (w/v) solution of sulforhodamine B (Sigma-Aldrich, Germany) in 1% (v/v) acetic acid (Avantor Performance Materials, Gliwice, Poland) was added to each well. After 30 min incubation at room temperature, unbound dye was washed out with 1% (v/v) acetic acid, whereas bound dye was solubilized with 10 mM unbuffered TRIS (Avantor Performance Materials, Gliwice, Poland) solution. The entire procedure was performed using a BioTek EL-406 washing station (BioTek Instruments, USA). After additional 30 min, absorbance was read using a Biotek Hybrid H4 reader (BioTek Instruments, USA) at 540 nm wavelength. MTT assay was used alternatively for HL-60 cell line and in the experiment in which estrogens are added (specified in the table legend). Absorbance was measured using a Biotek Hybrid H4 reader at 570 nm wavelength for MTT assay.
(§2) Compounds at each concentration were tested in triplicate in a single experiment and each experiment was repeated at least three times independently.
(§3) Results of in vitro antiproliferative effects are shown in Table 3 and Table 4 and are presented as mean IC50 ± SD calculated using the Prolab-3 system based on Cheburator 0.4 software.
A general note: Sulforhodamine B stains cellular protein and so reports cell mass.

The subject of another assay is MDA-MB-231. Described as above. The class given is cell-based, human. The conditions noted are these: Homo sapiens, MDA-MB-231, 72-hour exposition. The protocol: as §1, §2, §3
Another assay deals with Caco-2. In words: Sulforhodamine B antiproliferative assay, 72 h. The class given is cell-based, human. The conditions noted are these: Homo sapiens, Caco-2; normal (21% of oxygen), 72-hour exposition.
The test system of another assay is HT-29. In words: Sulforhodamine B antiproliferative assay, 72 h. The class given is cell-based, human. The conditions noted are these: Homo sapiens, HT-29; normal (21% of oxygen), 72-hour exposition. How it is done: as §1, §2, §3
Assay [1] relates to Lewis Lung Carcinoma (LLC). In words: Murine model of Lewis Lung Carcinoma. The class given is in vivo, mice. The conditions noted are these: for Tumor volume average±stdev, day 10 / Tumor volume average±stdev, day 12 / Tumor volume average±stdev, day 14 / Tumor volume average±stdev, day 16 / Tumor volume average±stdev, day 17 / Individual tumor volumes, day 10 / Individual tumor volumes, day 12 / Individual tumor volumes, day 14 / Individual tumor volumes, day 16 / Individual tumor volumes, day 17: C57BL/6 mice, LLC s.c.; for Tumor volume average±stdev, day 10 / Tumor volume average±stdev, day 12 / Tumor volume average±stdev, day 14 / Tumor volume average±stdev, day 16 / Tumor volume average±stdev, day 17: 5 animals; for Individual tumor volumes, day 10 / Individual tumor volumes, day 12 / Individual tumor volumes, day 14 / Individual tumor volumes, day 16 / Individual tumor volumes, day 17: single animals; for Anti-cancer activity in vivo: LLC model, Tables 6 and 7. How it is done:
To confirm anticancer activity of selected compounds of invention, PDI A1-inhibitors in vivo, selected compounds of invention were tested in the murine model of Lewis Lung Carcinoma (LLC). The Lewis Lung Carcinoma (LLC) cell line was obtained from the ATCC collection and was cultured in a humidified atmosphere of 5% CO2 at 37° using Dulbecco’s modified Eagle’s medium (DMEM) that contained 10% bovine serum (Sigma). Female (6-8 weeks old) C57BL/6 mice (purchased from Envigo RMS. BV., Nederland) were acclimated for one week and were fed with animal chow and water ad libitum. The C57BL/6 mice were injected s.c. with 0.5 × 10^5 LLC cells per mice in 100 µL PBS. Compounds were dissolved in DMSO and then 0.9% NaCl (DMSO final concentration 1%) were added. In each treatment group, i.p. injections of 100 µl compound were started on 1 day after tumor inoculation. Control animals injected with equal volume of 0.9% NaCl with 1% DMSO administered in the same schedule as other groups. Tumor larger radius (a) and smaller radius (b) were measured by calipers. The tumor volume (Tv) was calculated according the following formulaTv = V=4 • ab2/3. The mice in control group were sacrificed 17 days after tumor establishment. Tumor tissues were dissected, weighed and frozen in OCT compound.

Another assay addresses T1, PDI A1 (Homo sapiens, UniProt P07237).
T1 construct: purchased Mybiosource; host or cells: E. coli
Description: Insulin turbidometric assay, inhibition of PDI A1. The class given is biochemical. The conditions noted are these: insulin reduction, turbidity at 650 nm, 60 min incubation at 37° C.; read-out: Inhibition of PDI A1 (EC 50). Put shortly:
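E. coli-expressed recombinant PDIA1 (10 ug/ml) preincubated with compound 60 min at 37 °C in phosphate buffer pH 7.6, 1 mM EDTA, DTT. Reaction started with insulin (0.15 mM final) and DTT (0.174 mM final). Insulin-reduction turbidity recorded at 650 nm over 120 s against PDI-free reference.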

Assay [2] deals with arterial thrombosis, right common carotid artery. Description: Rat model of arterial thrombosis. The class given is in vivo. The conditions noted are these: Wistar rats, FIG. 6, dose as low as. How it is done: To confirm antithrombotic activity of compounds of invention, inhibitors of PDIA1, pharmacological activity of selected compounds was tested in vivo in the rat model of arterial thrombosis . Wistar rats were anaesthetized with pentobarbital (40 mg/kg, i.p.) and placed in a supine position on a heated (37° C.) operating table. Arterial thrombosis was induced by electrical stimulation of the right common carotid artery, as previously described (Kramkowski et al., 2012). Briefly, the anode, a stainless steel L-shaped wire, was inserted under the artery and connected to a constant current generator. The cathode was attached subcutaneously to the hind limb. The artery was stimulated (1 mA) for 10 min. Fifty-five minutes after the beginning of stimulation, the segment of the common carotid artery containing the formed thrombus was dissected and opened lengthwise, and the thrombus was completely removed and air-dried at room temperature for 24 h. Thrombus was then weighed in a blinded manner.

Where [3] appears, read: hypoxia (<1% of oxygen), read-out: IC50 [µg/ml] MCF-7 hypoxia.
Setting [4] is: normal (21% of oxygen), read-out: IC50 [µg/ml] MCF-7 normal.
[5] abbreviates: hypoxia (<1% of oxygen), read-out: IC50 [µg/ml] MDA-MB-231 hypoxia.
The mark [6] stands for this setting: normal (21% of oxygen), read-out: IC50 [µg/ml] MDA-MB-231 normal.

T1 sequence (P07237 18-508, species assumed): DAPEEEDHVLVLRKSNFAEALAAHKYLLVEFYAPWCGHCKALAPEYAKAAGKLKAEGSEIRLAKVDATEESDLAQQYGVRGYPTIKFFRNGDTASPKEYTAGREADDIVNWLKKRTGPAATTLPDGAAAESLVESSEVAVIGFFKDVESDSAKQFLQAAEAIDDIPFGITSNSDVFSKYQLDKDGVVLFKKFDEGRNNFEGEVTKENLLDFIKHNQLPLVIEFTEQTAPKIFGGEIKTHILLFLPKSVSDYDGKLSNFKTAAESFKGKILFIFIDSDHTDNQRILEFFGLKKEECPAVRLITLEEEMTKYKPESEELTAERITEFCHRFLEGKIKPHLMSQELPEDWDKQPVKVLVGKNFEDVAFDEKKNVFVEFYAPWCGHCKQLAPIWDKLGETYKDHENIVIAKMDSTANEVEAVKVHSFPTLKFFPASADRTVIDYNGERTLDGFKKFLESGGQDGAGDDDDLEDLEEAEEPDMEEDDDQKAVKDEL
Description for Caco-2: In the experiment, cells were seeded on 96-well plates (Sarstedt, Germany) in appropriate culture medium at a density of 10^5 cells/mL 24 h before adding the tested compounds. Cells were treated with each compound in four concentrations in the range 0.1-100 ug/mL. […] Briefly, cells were fixed with 50 µL/well of 50% (w/v) trichloroacetic acid (Avantor Performance Materials, Gliwice, Poland). After 1 h incubation, plates were washed several times with tap water and 50 µL of 0.4% (w/v) solution of sulforhodamine B (Sigma-Aldrich, Germany) in 1% (v/v) acetic acid (Avantor Performance Materials, Gliwice, Poland) was added to each well. After 30 min incubation at room temperature, unbound dye was washed out with 1% (v/v) acetic acid, whereas bound dye was solubilized with 10 mM unbuffered TRIS (Avantor Performance Materials, Gliwice, Poland) solution. […] After additional 30 min, absorbance was read using a Biotek Hybrid H4 reader (BioTek Instruments, USA) at 540 nm wavelength.

As for `COC(=O)C1CN1S(=O)(=O)c1ccc(C)cc1` (stereo not drawn) [Compound C-3161, Methyl 1-(p-tolylsulfonyl)aziridine-2-carboxylate], the IC50 in the assay on MCF-7 (setting [3]) was found to be 3.6 ± 0.3 µg/mL (≈ 14.1 µM). Also, the IC50 in the assay with MCF-7 (setting [4]) came to 3.6 ± 0.3 µg/mL (≈ 14.1 µM). Further, in the assay with MDA-MB-231 (setting [5]), the IC50 was determined as 11.3 ± 10.6 µg/mL (≈ 44.3 µM). In addition, the IC50 in the assay on MDA-MB-231 (setting [6]) turned out to be 9.9 ± 8.2 µg/mL (≈ 38.8 µM). The molecule also yielded an IC50 with Caco-2 of 3.5 ± 0.3 µg/mL (≈ 13.7 µM). Moreover, in the assay with HT-29, the IC50 worked out at 28.4 ± 5 µg/mL (≈ 111 µM). Also, in assay [1] (50 mg/kg i.p.), the “Tumor volume average±stdev, day 10” value is 105±144 mm3; the “Tumor volume average±stdev, day 12” value turned out to be 172±240 mm3; the “Tumor volume average±stdev, day 14” value came to 345±377 mm3; the “Tumor volume average±stdev, day 16” value is 380±446 mm3. Besides, in assay [1] (50 mg/kg i.p.), the “Tumor volume average±stdev, day 17” value was determined as 368±393 mm3. For the same molecule, in assay [1] (50 mg/kg i.p., 50 mg/kg), the “Individual tumor volumes, day 10” value is 258 mm3 and 0 mm3 (3×) and 266 mm3; the “Individual tumor volumes, day 12” value was 496 mm3 and 0 mm3 (3×) and 365 mm3; the “Individual tumor volumes, day 14” value was 829 mm3 and 254 mm3 and 0 mm3 (2×) and 642 mm3; the “Individual tumor volumes, day 16” value is 980 mm3 and 199 mm3 and 0 mm3 (2×) and 719 mm3. Further, the “Individual tumor volumes, day 17” value in assay [1] (50 mg/kg i.p., 50 mg/kg) was 946 mm3 and 476 mm3 and 0 mm3 (2×) and 419 mm3. Also, in assay [1], the “Anti-cancer activity in vivo” value is reported as “possess anti-cancer activity in vivo”. Moreover, the EC50 at PDI A1 is 5 µM.

Consider `CCCCc1ccc(S(=O)(=O)N2CC2C(=O)OC)cc1` (stereo not drawn) [Compound C-3257, Methyl 1-(4-butylphenyl)sulfonylaziridine-2-carboxylate], for which, in the assay on MCF-7 (setting [3]), the IC50 amounted to 17.1 ± 7.4 µg/mL (≈ 57.5 µM). For the same molecule, the IC50 with MCF-7 (setting [4]) turned out to be 20.8 ± 6.6 µg/mL (≈ 69.9 µM). In addition, the IC50 in the assay with MDA-MB-231 (setting [5]) came out at 13.5 ± 4 µg/mL (≈ 45.4 µM). For the same molecule, in the assay on MDA-MB-231 (setting [6]), the IC50 amounted to 9.9 ± 2.8 µg/mL (≈ 33.3 µM). Moreover, the IC50 in the assay with Caco-2 came to 9.8 ± 3.8 µg/mL (≈ 33 µM). Further, in assay [2], the “Dose at which effect on thrombus formation was significant and pronounced” value is recorded as 0.03 µmol/kg. The molecule further displayed an IC50 in the assay on HT-29 of 23.8 ± 4.8 µg/mL (≈ 80 µM). Besides, in assay [1] (75 mg/kg i.p.), the “Tumor volume average±stdev, day 10” value was 66±147 mm3; the “Tumor volume average±stdev, day 12” value came to 208±287 mm3; the “Tumor volume average±stdev, day 14” value stood at 462±264 mm3; the “Tumor volume average±stdev, day 16” value is 686±108 mm3. The “Tumor volume average±stdev, day 17” value in assay [1] (75 mg/kg i.p.) came out at 1097±482 mm3. Besides, in assay [1] (75 mg/kg i.p., 75 mg/kg), the “Individual tumor volumes, day 10” value was 0 mm3 (4×) and 329 mm3; the “Individual tumor volumes, day 12” value was 572 mm3 and 0 mm3 (3×) and 468 mm3; the “Individual tumor volumes, day 14” value was 594 mm3 and 0 mm3 and 537 mm3 and 657 mm3 and 523 mm3; the “Individual tumor volumes, day 16” value was 794 mm3 and 548 mm3 and 601 mm3 and 772 mm3 and 717 mm3. In addition, the “Individual tumor volumes, day 17” value in assay [1] (75 mg/kg i.p., 75 mg/kg) is 674 mm3 and 882 mm3 and 1016 mm3 (2×) and 986 mm3. In assay [1], the “Anti-cancer activity in vivo” value is listed as “possess anti-cancer activity in vivo”.
